Data from patent US9744191B2, “Antimicrobial compositions and methods” (Yale University, priority 2012, dated 2017).
Entries after “also recorded” stand apart in the source; their conditions may differ.

What was measured:
[1] = system: Saccharomyces cerevisiae MYH500; experiment: Growth assays for antifungal compounds combined with fluoride: S. cerevisiae; assay type: cell-based; details: for inhibition of S. cereviciae growth: under the assay conditions, data not shown; for fungal growth inhibition compared with NaF: 30 mM and 80 mM, with amphotericin B; for effect of ion on MIC of amphotericin B: tested at 30 mM and 80 mM with amphotericin B
Protocol: (§1) Model Organism: Saccharomyces cerevisiae MYH500 [Genotype: his3-del200, leu2-3, ura3-52, lys2-801, trp1-1, gal2]
Methods: • 1. Pick an isolated yeast colony (S. cerevisiae MYH500) from a plate, inoculate into 2 mL YPD medium in a 14 mL snap-cap tube and grow for 12 h at 30° C. on a shaker (200 rpm). The O.D.600 of the culture should be approximately 1.30. • 2. Two growth methods are used. (i) If culturing cells in 14 mL snap-cap tubes, dilute the cells 1:3 (1 vol. of 12 hr cell culture plus 2 vol. medium). Then, inoculate 2 mL YPD medium with 20 μL of 1/3 diluted cells (1% inoculation). […] (ii) For growth curve measurements, culture cells in a honeycomb 2 plate (Oy Growth Curves Ab Ltd) with 400 μL of medium inoculated with 8 μL of 1:6 diluted cells (1% inoculation). […] Supplement a fungicide and/or fluoride in the culture as necessary for each experiment.

[2] = target: T1, crcB fluoride transporter (Escherichia coli, UniProt P37002); experiment: Fluoride riboswitch beta-galactosidase reporter assay in E. coli cells with imipramine; assay type: cell-based
T1 construct: endogenous in cells; host or cells: E. coli cells carrying a fluoride riboswitch beta-galactosidase reporter construct
T1 sequence (P37002 whole entry): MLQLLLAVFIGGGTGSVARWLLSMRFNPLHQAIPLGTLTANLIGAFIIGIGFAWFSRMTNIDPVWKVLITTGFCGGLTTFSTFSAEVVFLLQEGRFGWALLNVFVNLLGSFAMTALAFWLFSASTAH
Excerpt: Fluoride riboswitch fused to a beta-galactosidase reporter gene. Construct is present in E. coli cells and cells are exposed to concentrations of sodium fluoride and imipramine (x-axis) as noted in FIG. 10.

[3] = system: Neurospora crassa (FGSC #2225); experiment: Growth assays for antifungal compounds combined with fluoride: N. crassa; assay type: cell-based
Protocol: Model Organism: Neurospora crassa (FGSC #2225) [Genotype: N. crassa, A]
Methods: • 1. Recover N. crassa on a slant with minimal medium at 25° C. for 5-6 days to grow spores. • 2. Re-suspend two loops of spores in 2 mL minimal medium. • 3. Inoculate 20 μL into 2 mL minimal medium in an autoclaved 16×150 mm glass tube with cap. • 4. Supplement a fungicide and/or fluoride in the culture as necessary for each experiment. • 5. Grow for 24 h at 25° C. on a shaker (200 rpm).

[4] = system: Candida albicans (SC5314; ATCC number MYA-2876); experiment: Growth assays for amphotericin B combined with fluoride: C. albicans; assay type: cell-based; details: for effect on C. albicans growth: liquid medium, 48 hours
Protocol: Organism: Candida albicans (SC5314; ATCC number MYA-2876)
Methods: • 1. Pick an isolated C. albicans yeast colony from a plate, inoculate into 2 mL YPD medium in a 17 mL screw-cap tube and grow for 12 h at 28° C. on a shaker (200 rpm). The O.D.600 of the culture should be approximately 3.6. • 2. Two growth methods were used. (i) If culturing cells in 17 ml screw-cap tubes, dilute the cells 1:5 (1 volume of 12 hr cell culture plus 4 volumes of medium). Inoculate 2 mL YPD medium with 20 μL of 1-to-5 diluted cells (1% inoculation). Incubate at 28° C. and 200 rpm for 9 hours before measuring O.D. (ii) For growth curve measurements, culture cells in a honeycomb 2 plate with 400 μL of medium inoculated with 8 μL of 1-to-10 diluted cells (1% inoculation). Culture for 48 hrs at 28° C., measuring OD600 every 15 m without shaking in the Bioscreen C MBR instrument. • 3. Supplement a fungicide and/or fluoride in the culture as necessary for each experiment.

[5] = system: Saccharomyces cerevisiae MYH500; experiment: Growth assays for Novexatin combined with fluoride: S. cerevisiae; assay type: cell-based; details: S. cereviciae; for improvement in MIC at about 24 hours: 30 mM NaF, approximately 24 hours (26.25 h)
Protocol: as §1
Methods: • 1. Pick an isolated yeast colony (S. cerevisiae MYH500) from a plate, inoculate into 2 mL YPD medium in a 14 mL snap-cap tube and grow for 12 h at 30° C. on a shaker (200 rpm). The O.D.600 of the culture should be approximately 1.30. • 2. For growth curve measurements, culture cells in a honeycomb 2 plate with 80 μL of medium (final volume) inoculated with 2 μL of 1:12 diluted cells. Culture for 48 hrs at 30° C., measuring O.D.600 every 15 m without shaking in the Bioscreen C MBR instrument. • 3. Supplement a fungicide and/or fluoride in the culture as necessary for each experiment.

[6] = system: Saccharomyces cerevisiae MYH500; experiment: Fungicidal fluoride assay (colony counts after culture in fluoride); assay type: cell-based; details: 300 mM fluoride in liquid medium, 160 minute incubation
Protocol: CrcB proteins are most likely fluoride transporters. The fungal expression of crcB and the subsequent ejection of fluorides from cells is a major mechanism for how these organisms overcome fluoride toxicity. To assess whether fluoride simply halts fungal growth (fungistatic) or kills fungal cells (fungicidal), a culture of Saccharomyces cereviciae and added 300 mM fluoride to the medium was prepared. Samples of this mixture were taken at various times, plated, and the number of resulting colonies were recorded (FIG. 1). […] Therefore, compounds that facilitate the uptake and/or retention of fluoride, or otherwise inhibit the fluoride toxicity mitigation responses of fungi, also function as fungicidal compounds when used in combination with fluoride.
as §1
Medium: YPD (liquid and solid)
• 1. Pick an isolated yeast colony (S. cerevisiae MYH500) from a plate, inoculate into 2 mL YPD medium (liquid) in a 14 mL snap-cap tube and grow for 12 h at 30° C. on a shaker (200 rpm). • 2. Dilute 20 μL of the culture into 2 mL medium and mix. Remove a 20 μL aliquot and transfer to 2 mL YPD medium with 300 mM NaF. Grow at 30° C. on a shaker (200 rpm) for 10, 20, 40, 80, 160 and 240 m. • 3. At each time point, transfer 100 μL culture to an agar plate and distribute. • 4. […]

[7] = system: Escherichia coli crcB knock-out; details: E. coli crcB knock-out compared to wild-type; cited from earlier work

aculeacin A
effect of fluoride on inhibition of S. cereviciae growth by the antifungal ([1]; 30 mM fluoride): not affected at all; also recorded: lack of an effect

CN(C/C=C/C#CC(C)(C)C)Cc1cccc2ccccc12 [terbinafine]
inhibition of S. cereviciae growth [1]: did not significantly inhibit S. cereviciae growth

CN(C)CCCN1c2ccccc2CCc2ccccc21 [imipramine, Imipramine]
reporter gene expression (fluorescence, substrate 4-MUG) ([2]; 330 μM imipramine, E. coli cells with riboswitch-reporter construct, sodium fluoride): increased expression of the reporter gene | reporter gene expression with imipramine in cells lacking CrcB ([2]; E. coli cells lacking the gene for fluoride transporter protein CrcB): substantially reduced

[Cl-].[K+] [KCl]
fungal growth inhibition compared with NaF [1]: consistently less effective than NaF | effect of ion on MIC of amphotericin B [1]: improve the MIC values of amphotericin B

[Cl-].[Na+] [NaCl]
fungal growth inhibition compared with NaF [1]: consistently less effective than NaF | effect of ion on MIC of amphotericin B [1]: improve the MIC values of amphotericin B

Cc1cccc(N(C)C(=S)Oc2ccc3ccccc3c2)c1 [tolnaftate]
inhibition of S. cereviciae growth [1]: did not significantly inhibit S. cereviciae growth

C[C@@H]1[C@H](O)[C@@H](C)/C=C/C=C/C=C/C=C/C=C/C=C/C=C/[C@H](O[C@@H]2O[C@H](C)[C@@H](O)[C@H](N)[C@@H]2O)C[C@@H]2O[C@](O)(C[C@@H](O)C[C@@H](O)[C@H](O)CC[C@@H](O)C[C@@H](O)CC(=O)O[C@H]1C)C[C@H](O)[C@H]2C(=O)O [amphotericin B]
effect of combination on growth inhibition ([1]; 10 nM amphotericin B in combination with a range of fluoride concentrations): dramatic increase in the growth-inhibition effects of fluoride | effect on cell growth ([1]; 10 nM amphotericin B used alone): almost no effect on cell growth | growth inhibition effect on S. cereviciae ([1]; 20 nM amphotericin B alone): almost no growth inhibition effect | improvement in MIC for S. cereviciae ([1]; 30 mM fluoride added to liquid medium): approximately 10 fold | improvement in MIC for S. cereviciae ([1]; 80 mM fluoride): ~30 fold | amphotericin B concentration required to almost completely inhibit growth ([1]; absence of fluoride, over 48 hours): 300 nM | effect on S. cereviciae growth ([1]; amphotericin B 30 to 70 nM, absence of fluoride): only marginally delay near full growth | amphotericin B concentration required to prevent N. crassa growth ([3]; amphotericin B tested independently, 24 h): greater than 300 nM | reduction of MIC for N. crassa ([3]; combined with 10 mM fluoride): at least 4 fold | reduction of MIC for N. crassa ([3]; combined with 30 mM fluoride): ≥ 10 fold | MIC for C. albicans ([4]; medium supplemented with 30 mM fluoride): ~0.05 µM

cyclic hepta-arginine [NOVEXATIN®]
improvement in MIC at about 24 hours [5]: A similar result | improvement in MIC at about 24 hours ([5]; listed as Novexatin®): improvement in MIC | improvement in MIC ([5]; combined with 30 mM fluoride, 48 h): greater than 3 fold | concentration needed to almost completely prevent fungal growth ([5]; over 48 hours, no fluoride): 3 mM

[F-].[Na+] [fluoride, Sodium fluoride]
loss of cell viability (colonies after plating) [6]: near complete killing | effect on fungal growth ([1]; 60 mM fluoride combined with 20 nM amphotericin B): complete inhibition of growth | effect on fungal growth ([1]; 60 mM fluoride tested alone): only a modest effect on fungal growth | lengthening of time to near full culture growth ([1]; 80 mM fluoride alone): two fold | effect on S. cereviciae growth ([1]; fluoride alone, 30 mM in liquid medium): only marginally affects | fluoride concentration required to completely inhibit fungal growth ([1]; fluoride alone, 48-hour culture): > 100 mM | fluoride concentration required to completely prevent N. crassa growth ([3]; fluoride tested independently, 24 h): greater than 80 mM | effect on C. albicans growth ([4]; 100 mM fluoride alone): only a modest inhibitory effect | effect on C. albicans growth ([4]; 300 mM fluoride alone): completely prevented growth | increase in sensitivity to fluoride of crcB knock-out strain [7]: approximately 200 fold
